Source: publication PMC12040169 (PLOS Biology, 2025)

Assay: in vitro
Settings: human, hela cells, % viability

Compound	viability at 28.5 h, 10 µM [%]	viability at 28.5 h, 10 µM (bulk resorufin, single well) [%]
O=C(Cc1cn2ccsc2n1)NCCCN1CCCc2ccccc21 [CBK306611]	101	
C=CCn1c(Cc2csc(NC(=O)CCc3nc4ccccc4c(=O)[nH]3)n2)n[nH]c1=S [CBK297888]	88.8	
CCCc1cc(CNC(=O)CN2CCCC(C)C2)on1 (centres unmarked) [CBK282045]	99.8	
O=C(O)CSc1nnc(SCc2cccc3ccccc23)s1 [CBK266215]	81.4	
O[C@H]1[C@H](NCC2CC2)[C@H]2CO[C@H](O2)[C@@H]1N1CCOCC1 [CBK288819]	86.4	
CS(=O)(=O)Nc1ncc(Br)cc1C(=O)Nc1ccc(C(F)(F)F)cc1 [CBK076485]	96.7	
CCCCc1noc(C(C)S(=O)(=O)Cc2csc(CCCC)n2)n1 (centres unmarked) [CBK305431]	110	
CCN(CC)CCN1C(=O)C(O)=C(C(=O)c2ccc(Cl)cc2)C1c1cccc(Br)c1 (centres unmarked) [CBK265165]	112	
CCOC(=O)c1cn(CC)c2cc(N3CCOCC3)c(F)cc2c1=O [CBK307142]	95.7	
CCC1CCCCN1C(=O)c1cc(C)nc(Cl)c1 (centres unmarked) [CBK076748]	102	
COc1ccc(C(=O)Nc2ccc3[nH]ccc3c2)cc1Cl [CBK159681]	94	
COc1ccc(OC)c(NC(=S)NCCN2CCOCC2)c1 [CBK264927]	96.9	
CC(C)(C)OC(=O)N1CCC2(CC1)OCc1cc(Br)ccc1O2 [CBK092251]		99.4
COc1ccc(OC)c(C(O)CN2CCCC(C(=O)N3CCCCCC3)C2)c1 (centres unmarked) [CBK286286]	87.5	
COc1cc(Nc2cc(-c3ccc(F)c(F)c3)ncn2)cc(OC)c1OC [CBK090711]	94.7	
CC(C)(C)c1cc(C[C@H]2CNCC[C@H]2CC(=O)N2CCN(c3ccc(F)cc3)CC2)no1 [CBK288800]	94.8	
CCCn1nc(COc2cccc(F)c2)nc1C1CCN(C(C)=O)CC1 [CBK306637]	97.7	
CN(CC(=O)NCc1ccc(Cl)cc1)S(=O)(=O)Cc1ccc(C#N)cc1 [CBK305899]	92.3	

Compound	viability at 28.5 h, 10 µM [%]	viability at 28.5 h, 10 µM (bulk resorufin, single well) [%]
Cc1cccc(C)c1OCC(=O)N1CCC(c2cc(C(=O)NC(C)C)c3ccccc3n2)C1 (centres unmarked) [CBK285916]	112	
COC(=O)c1cc(CN2CCCN(S(=O)(=O)c3ccc(-n4cnc(Cl)c4Cl)cc3)CC2)cn1C [CBK063080]	85.2	
Cc1ccccc1N1C(=O)c2ccc(C(=O)OCC(=O)c3ccc(Cl)c([N+](=O)[O-])c3)cc2C1=O [CBK264108]	91.3	
COc1cc(S(=O)(=O)NCc2ccncc2)c(C)cc1C [CBK269988]	91.8	
N#CCCn1cc(C(N)=O)c(-c2cc3ccccc3o2)n1 [CBK306204]	92.9	
COc1cccc(C2(NC(=O)CCn3nc(C)cc3C)CCCC2)c1 [CBK283749]	90.7	
CCN1CCCCC1CNC(=O)Cn1nc(C)cc1C (centres unmarked) [CBK282057]	98.6	
Cc1ccccc1C(=O)NC1(C(F)(F)F)C(=O)Nc2c1c(=O)[nH]c(=O)n2CCc1ccccc1 (centres unmarked) [CBK267483]	86.6	
Cc1cccc(NC(=O)NCCCn2c(-c3ccncc3)nc3cccnc32)c1 [CBK288580]	97.5	
CCc1nc2ccc(C(=O)Nc3ccc(C(N)=O)cc3)cn2c1N(C)CCC(C)C [CBK145476]	90.7	
COc1cc(C(N)C(=O)O)ccc1OCc1ccccc1 (centres unmarked) [CBK286909]	82.6	
Cc1ccc2c(CSc3nc(N)cc(N)n3)cc(=O)oc2c1C [CBK297519]	87.7	
O=C(N/N=C/c1c(O)ccc2ccccc12)c1cnccn1 [CBK262400]	105	
COC(=O)c1c(NC(=S)Nc2ccccc2)sc(Cc2ccccc2)c1C [CBK263501]	90.6	
CN(Cc1ccc(Br)cc1Cl)C(=O)c1cn[nH]c1C1CCNC1 (centres unmarked) [CBK304785]	93.5	
Cc1noc(C)c1CCC(=O)N1CC[C@H]2NC(=O)COc3ccccc3C/C=C/C[C@H]2C1 [CBK292115]	110	
CNS(=O)(=O)N1CCN(S(=O)(=O)NC)CC1 [CBK007064]	93.7	
